Measurements taken from US12144886B2, “Perineural administration of resiniferatoxin for treatment of maladaptive pain” (Sorrento Therapeutics, Inc., priority 2018, dated 2024).

Experiments:
[1] = test system: declawed cats with chronic distal thoracic limb pain; test: QoL and pain monitoring (CSOMf, FMPI, owner reports) in open-label trial of perineural RTX in declawed cats; type: in vivo, cat
Experimental: Cats suffering from severe bilateral chronic pain (more than 90 days) as a result of severe complications after onychectomy were enrolled in this study (an exploratory, open-label, multicenter clinical trial). Thirteen (13) cases were treated for initial pain and reduced quality of life (QoL). Then, bilateral perineural distal limb injections (ring block technique) were administered under general anesthesia (a combination of diphenhydramine, buprenorphine, dexmedetomidine, ketamine, and isoflurane). Following a published technique (Enomoto et al., 2016) for the nerve block of the manus of the cat, the total dose of RTX was equally distributed adjacent to the 1) superficial branch of the radial nerve, 2) dorsal branch of the ulnar nerve, 3) median nerve and superficial branch of the palmar branch of the ulnar nerve, and 4) deep branch of palmar branch of the ulnar nerve. A total of 2.5 ug (1.25 ug/1 mL per forelimb in Group 1, n=7) and 5 ug (2.5 ug/1 mL per forelimb in Group 2, n=6) of RTX was injected as a one-time treatment. Group 2 included the cat for which detailed results are provided in Example B above. Monitoring of QoL and pain for the following 28 days was accomplished using the Client-Specific Outcome Measures feline (CSOMf), the Feline Musculoskeletal Pain Index (FMPI), two post-injection physical examinations, and videography on days 3, 7, 14, and 28 post injections.

[2] = test system: Crl:CD(SD) Sprague Dawley rats; test: Single dose nerve block injection safety study in rats with 14-day recovery; type: in vivo, rat; conditions: for Food consumption: Days 2 to 7
Excerpt: This study was directed to determining the safety of administering RTX, when given as a nerve block injection as a single dose to rats.
119 male and 119 female Crl:CD(SD) Sprague Dawley rats were obtained from Charles River Laboratories, Raleigh, NC. The animals were 10 weeks old and weighed between 212 and 482 g at the initiation of dosing.
The nerve block injection doses were given into the right thigh. The animals were temporarily restrained for dose administration. Animals were sedated via isoflurane inhalation for dose administration. The day of dosing for each animal was designated as Day 1. A necropsy was conducted for a recovery study animal that died on study, and specified tissues were retained. The animal was refrigerated prior to necropsy to minimize autolysis.
Toxicokinetic animals surviving until scheduled euthanasia were euthanized by carbon dioxide inhalation.
Main study and recovery animals were subjected to a complete necropsy examination. A board-certified veterinary pathologist was available for scheduled necropsies.
All statistical tests were conducted at the 5% significance level. All pairwise comparisons were conducted using two-sided tests.
The groups were compared using an overall one-way ANOVA F-test if Levene's test was not significant or the Kruskal-Wallis test if it was significant. […] Datasets with two groups were compared using a Dunnett's test (equivalent to t-test in Nevis 2012 tables) or Dunn's test (equivalent to Wilcoxon Rank-Sum test in Nevis 2012 tables).

[3] = 10 μg, both sexes, terminal euthanasia

Structure (SMILES): C=C(C)[C@]12C[C@@H](C)[C@@]34O[C@](Cc5ccccc5)(O[C@@H]1[C@@H]3C=C(COC(=O)Cc1ccc(O)c(OC)c1)C[C@]1(O)C(=O)C(C)=C[C@@H]41)O2 [RTX, resiniferatoxin]
- CSOMf and FMPI scores ([1]; 28-day monitoring period, 13 cats): clear improvement
- Owner-reported natural and pathological adopted behaviors (QoL) ([1]; both groups): significant changes
- Duration of improvements reported informally ([1]; in some cases): over 6 months
- Treatment of distal thoracic limb pain ([1]; perineural injections, cats): can effectively treat
- Food consumption ([2]; 2.5 μg, females only): statistically significant decrease
- Unscheduled death ([2]; 2.5 μg, one recovery study female, unrelated to test article, attributed to aspiration-related foreign material/inflammation in the lung): found dead on Day 2
- Microscopic change in the skeletal muscle ([2]; 10 μg): myofiber degeneration/necrosis
- Spleen microscopic correlate ([2]; 10 μg, both sexes): minimal decreased lymphoid cellularity of the white pulp
- Thymus microscopic correlate ([2]; 10 μg, both sexes): minimal to mild decreased lymphoid cellularity
- Spleen weights [2, 3]: Statistically significant lower absolute and relative spleen weights
- Thymic weights [2, 3]: Lower absolute and relative thymic weights
- Neutrophils ([2]; 10 μg, females only): statistically significant increase that remained increased after the recovery period
- Mean body weight gain ([2]; 10 μg, females, Days 1 to 14): statistically significant decrease
- Food consumption ([2]; 10 μg, males only): statistically significant decrease
- Mean body weight gain ([2]; 10 μg, males, Days 1 to 2): statistically significant decrease
- Microscopic change in the mammary gland (non-adverse) ([2]; >2.5 μg): single cell necrosis
- Test article-related organ weight changes at end of recovery ([2]; end of the recovery period (Day 15)): not observed
- Reversibility of microscopic changes ([2]; following a 14-day recovery period): fully recovered
- Clinical chemistry parameters ([2]; rats): no adverse RTX (resiniferatoxin)-related changes
- Tolerability as nerve block injection ([2]; rats, 0.625, 2.5, and 10 μg single dose): well tolerated
- Differences in hematology, coagulation, clinical chemistry and urinalysis parameters ([2]; rats, all dose groups): not considered adverse or were not considered vehicle or test article related
- no-observed-adverse-effect level (NOAEL) ([2]; rats, single nerve block injection): 10 µg
- Mortality, organ weight, gross observations ([2]; single dose 0, 0.625, 2.5, or 10 μg): no test article-related mortality, differences in organ weight, or gross observations
- Gross findings ([2]; terminal euthanasia or recovery period animals): No test article-related gross findings
